Results taken from patent publication US20260365696A1, “INHIBITORS OF PTP1B / NCK1 INTERACTION AND METHODS OF MAKING AND USING SAME” (Radella Pharmaceuticals LLC, priority 2023, published 2026).

Experiments:
[1] = target: T1, interaction between PTP1B and the SH3-2 domain of NCK1 (Homo sapiens, UniProt P16333); experiment: GST pull-down / co-immunoprecipitation screen for disruption of the PTP1B / NCK1 SH3-2 interaction; format: binding; conditions: peptide 1 mM; for disruption of the interaction between PTP1B and the SH3-2 domain of NCK1: GST-SH3-2 and FLAG-PTP1B
T1 construct: FLAG-PTP1B from HEK293 lysate
Description: FIG. 4A depicts an immunoblot showing that certain peptides prevent co-immunoprecipitation of FLAG-PTP1B and GST-tagged SH3-2 domain of NCK1 (“SH3”). GST was fused to full-length NCK1 (“Nck1”), all SH3 domains of NCK1 (“SH3”), the NCK1 SH2 domain (“SH2”), the NCK1 SH3-1 domain (“SH3 1”), the NCK1 SH3-2 domain (“SH3 2”), and the NCK1 SH3-3 domain (“SH3 3”). GST alone was used as a negative control (“GST”). FLAG-PTP1B was incubated with the indicated bead-bound GST-fusion protein, and FLAG-PTP1B was detected in the IP eluate by western blotting. The outlined region in column “SH3-2” identifies the PTP1B band. For GST-SH3-2 and FLAG-PTP1B, the mixture was further incubated with one of peptides A through K, (1 mM). FIG. 4B depicts an input control for the immunoblot. FIG. 4C depicts a Ponceau stain for the immunoblot, which was used to measure total protein.
Construction and Purification of GST constructs: Human NCK1 (NM_006153) human cDNA was obtained (Origene, MD, USA). GST fusion constructs (GST-only control, GST full length NCK1, GST all SH3 domains of NCK1, GST SH2 domain of NCK1, GST SH3-1, GST SH3-2 and GST SH3-3) were amplified, double digested (EcoRI and XhoI, New England Biolabs), ligated in to pGEX-6P-2 vector (#M2200S, New England Biolabs; #GE28-9546-50, Merck), transformed in to DH5α E. coli cells (#C2987H, NEB) and purified using a plasmid preparation kit according to manufacturer's instructions (#T1010, New England Biolabs). GST-constructs were transformed in to BL21-Gold E. coli cells (#230134, Agilent), and GST-fusion proteins were produced, extracted, and bound to GST beads as described in Example 1. Beads were washed three times with STE buffer and stored at 4 °C.
GST pull-down experiments for compounds screening against FLAG PTP1B interaction with SH3-2 domain of NCK1. GST-bound agarose beads of SH3-2 domain were incubated overnight at 4 °C with lysates from HEK293 cells overexpressing FLAG PTP1B protein, to gether with various peptide compounds (1 mM) to screen for inhibition of PTP1B-NCK1 binding. Following overnight incubation, agarose beads were three times washed in STE buffer, and proteins were eluted in SDS-Laemmli buffer by heating at 95 °C for 10 min. Samples were spun at 12,000 rpm for 2 min, and the liquid fraction was transferred in to 1 mL Eppendorf tubes. Proteins were separated and detected by chemiluminescent Western Blotting (PEQLAB, Germany) using anti-FLAG HRP antibody (#A8592, Sigma).

LDLR−/− mice = experiment: LDLR−/− mouse model of atherosclerosis; format: in vivo; conditions: 30 mg/kg IP daily
Text: Animals: All animals were housed and tested following European (Directive on the Protection of Animals used for Scientific Purposes, 2010/63/EU) and UK Home Office regulations. Experiments were approved by the University Ethics Board and carried out in accordance with the Animal (Scientific Procedures) Act 1986 and following ARRIVE guidelines. LDLR−/− male mice (~6-7 weeks old) were purchased from Jackson, US. All mice received a high fat/high cholesterol diet (42% fat plus 0.2% cholesterol, #TD.88137, Envigo, US), to induce atherosclerosis phenotype associated with obesity and type 2 diabetes. All mice had ad libitum access to food and water and were kept in a 12 h light/dark cycle.
Treatments: After 8 weeks of high fat/high cholesterol diet feeding, mice were randomized in to control (n=10) or MD20 30 mg/kg (n=9) groups. MD20 compound (30 mg/kg) was administered once daily via intraperitoneal (IP) injection for 7 weeks, whereas control mice received a daily IP injection of vehicle (PBS). MD20 was kept at −20 °C and dissolved in sterile phosphate buffered saline (PBS) freshly every day before the injection. Two mice died during the study and final numbers per group were: control (n=8) and MD20 30 mg/kg (n=9).
Bodyweights and body mass composition: Body weights were recorded during the study, and fat and lean mass composition was analyzed using an EchoMRI scanner (EchoMedical Systems, Houston, TX, U.S.A.).
Metabolic measurements: All animals were 5 h-fasted before metabolic tests. Tail blood glucose was measured using AlphaTRAK 2 glucose strips and glucometer (Abbot, UK).
Glucose and insulin tolerance tests (GTT, ITT) were performed by IP injection of 2 mg/g of glucose (GTT) or 0.6 mU/g insulin (ITT), and glucose levels were measured at 15, 30, 60 and 90 min post-injection.
Serum and liver assays: Trunk-derived blood was collected from 5 h-fasted mice into serum separator microtubes and kept at −80 °C. Serum was used for insulin (#EZRMI-13K, Merck), leptin (#90030, Crystal Chem), free fatty acids (FFA; #mak044, Sigma-Aldrich), cholesterol (#MAK043, Sigma Aldrich), and alanine and aspartate aminotransferase (ALT and AST; ab105134 and ab105135, Abcam) analyses. Serum and liver triglycerides were determined using triglyceride reagents (#T2449, #F6428, #G7793, Sigma Aldrich).
Aortic plaques analyses: Hearts with aortas attached were immersed in formalin and stored at 4 °C for 24 h following dissection, and transferred in to PBS thereafter. Aortas were sub-dissected under microscope and prepared for staining with Oil Red O. Images were captured using a light microscope. Plaque formation was quantified using ImageJ software, and results were expressed as % plaque area.
Statistical analyses: Data were reported as means±SEM and analyzed using one- or two-way ANOVA with Bonferroni post hoc tests, as appropriate. GraphPad Prism (V8, GraphPad Software, Inc., San Diego, California, USA) was used for statistical analyses. P-values <0.05 were considered significant.

## Ac-PRPPKR-NH2 [MD20, Ac-PRPPKR-NH2]
[1]
  binding to full-length NCK1 (concluded from pull-down): bind to full-length NCK1, specifically, at SH3-2 domain
  disruption of the interaction between PTP1B and the SH3-2 domain of NCK1: disrupt the interaction between PTP1B and the SH3-2 domain of NCK1
LDLR−/− mice; vs control
  % change in fat mass: a trend to ward a decreased % change in fat mass
  aortic plaque area: No statistically significant differences
LDLR−/− mice; vs vehicle
  % change in body weights: significant interaction
  body weights during the weeks of treatment: significant interaction
  fat mass content: No statistically significant differences
  lean mass: No significant changes in lean mass
  raw body weights: No statistically significant differences
LDLR−/− mice; 2 mg/g glucose
  glucose tolerance test (GTT): No statistically significant differences
LDLR−/− mice; 0.6 mU/g insulin
  insulin tolerance test (ITT): not statistically significant, slight improvements could be seen
LDLR−/− mice; 5 h-fasted
  hepatic triglycerides: No statistically significant differences
  serum ALT: No statistically significant differences
  serum AST: No statistically significant differences
  serum cholesterol: No statistically significant differences
  serum free fatty acids: No statistically significant differences
  serum insulin: No statistically significant differences
  serum leptin: No statistically significant differences
  serum triglycerides: No statistically significant differences

## Ac-PPPEHIPPPPRPPKR-NH2 [MD17]
[1]
  binding to full-length NCK1 (concluded from pull-down): bind to full-length NCK1, specifically, at SH3-2 domain
  disruption of the interaction between PTP1B and the SH3-2 domain of NCK1: disrupt the interaction between PTP1B and the SH3-2 domain of NCK1
